According to US20060224077A1, “Analysis of a skin reactivity and hypersensitivity” (priority 2002, published 2006):

System: maxillary nerve (V2, sensory)
Experiment: Action potential of the maxillary nerve in response to electrical stimulation at face level, recorded non-invasively in vivo
Design: species or system human
Conditions: cream containing 0.75% capsaicin, 2 mg/cm^2 on a 2×4 mm skin zone immediately above the upper lip; 5 minutes after application; versus before application
From the text: The process according to the invention which uses the electrogenesis of the nerves and/or the brain is characterized in that: • two non-invasive electrodes (1,1′) are applied, at least one of the two electrodes being applied to a specific point of the zone of the skin to be analyzed, the measuring point, in order to detect the electrical activity of the nerves of the skin and/or the subcutaneous nerves at that point or even the electrical activity of the brain. These electrodes are associated with a circuit for evaluating the signals detected by the electrodes, this evaluation circuit comprising amplifying elements (2, 2′, 3), processing elements (7) and recording elements for the signals and also a microprocessor (8), • the skin zone to be analyzed is exposed to a stimulation, more particularly an electrical stimulation, and • the changes in the electrical signals detected by the electrodes driven by the stimulation as a function of time are analyzed over a certain period. […]
FIG. 8 compares the variations in the action potential of the maxillary nerve (V2, sensory) in response to an electrical stimulation at face level before and immediately after the topical application of xylocaine (5%). […] A cream containing 0.75% capsaicin was used for this purpose and was applied in a quantity of 2 mg/cm^2 to a 2×4 mm skin zone immediately above the upper lip. […]

COc1cc(CNC(=O)CCCC/C=C/C(C)C)ccc1O [capsaicin]
increase of the amplitude of the nerve potential after application: 75%
